Assay results from US9527832B2, “Substituted condensed pyrimidine compounds” (GRÜNENTHAL GMBH, priority 2013, dated 2016).
Where two headings read alike, the source gives them in different places.

Target: T1, human PDE4B1 (Homo sapiens, UniProt Q07343)
T1 construct: host or cells: Sf9 cells
Experiment: cAMP HTRF assay to determine the activity of hPDE4B1
Format: biochemical
Conditions: for inhibition at 1 µM: Percentage inhibition of PDE4B at 1 μM test concentration; for IC50: reported as ranges
Method in brief: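 Sf9-expressed recombinant human PDE4B1 (4.8 U) in Tris-HCl/MgCl2/DTT/Tween 20 buffer pH 7.8, with cAMP at 40 nM final, 30 min at room temperature. Reaction stopped with IBMX 1 mM; remaining cAMP detected by HTRF (665/620 nm ratio). IC50 from eight-point dose-response, n=2.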

[1] = dose response measurements with eight concentrations, read-out: IC50

T1 sequence (Q07343 whole entry): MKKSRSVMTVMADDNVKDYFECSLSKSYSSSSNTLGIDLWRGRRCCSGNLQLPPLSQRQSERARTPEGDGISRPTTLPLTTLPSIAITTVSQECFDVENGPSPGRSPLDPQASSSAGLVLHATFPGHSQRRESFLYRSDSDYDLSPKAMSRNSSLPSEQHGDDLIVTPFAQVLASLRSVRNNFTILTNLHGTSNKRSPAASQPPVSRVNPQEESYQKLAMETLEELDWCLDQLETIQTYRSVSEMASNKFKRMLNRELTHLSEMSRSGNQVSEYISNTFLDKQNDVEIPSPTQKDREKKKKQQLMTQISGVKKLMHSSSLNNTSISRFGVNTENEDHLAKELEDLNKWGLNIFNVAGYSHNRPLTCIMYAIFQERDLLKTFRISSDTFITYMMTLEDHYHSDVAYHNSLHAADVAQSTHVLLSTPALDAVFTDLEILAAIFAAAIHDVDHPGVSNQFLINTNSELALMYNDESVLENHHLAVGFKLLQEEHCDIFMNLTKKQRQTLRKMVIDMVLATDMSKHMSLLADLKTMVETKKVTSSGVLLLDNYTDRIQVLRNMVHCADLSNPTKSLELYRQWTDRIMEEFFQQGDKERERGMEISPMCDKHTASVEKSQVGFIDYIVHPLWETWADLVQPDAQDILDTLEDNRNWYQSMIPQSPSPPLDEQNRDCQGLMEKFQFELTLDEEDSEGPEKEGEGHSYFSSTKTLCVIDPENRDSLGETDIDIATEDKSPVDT

COc1ccc(-c2nc3c(c(N4CCc5ccc(OCC(=O)N6CCCC6)cc54)n2)C[S+]([O-])C3)cc1F (stereo not drawn) [Compound No. 2-119, 2-((1-(2-(3-Fluoro-4-methoxyphenyl)-6-oxido-5,7-dihydrothieno[3,4-d]pyrimidin-4-yl)indolin-6-yl)oxy)-1-(pyrrolidin-1-yl)ethanone]
inhibition at 1 µM: 107%

O=C(COc1ccc2c(c1)N(c1nc(-c3ccc(F)s3)nc3c1C[S+]([O-])C3)CC2)N1CCCC1 (stereo not drawn) [Compound No. 2-120, 2-((1-(2-(5-Fluorothiophen-2-yl)-6-oxido-5,7-dihydrothieno[3,4-d]pyrimidin-4-yl)indolin-6-yl)oxy)-1-(pyrrolidin-1-yl)ethanone]
inhibition at 1 µM: 116%

COc1ccc(-c2nc3c(c(N4CCc5ccc(OCC(=O)N6CCCC6)cc54)n2)C[S+]([O-])C3)cc1 (stereo not drawn) [Compound No. 2-121, 2-((1-(2-(4-Methoxyphenyl)-6-oxido-5,7-dihydrothieno[3,4-d]pyrimidin-4-yl)indolin-6-yl)oxy)-1-(pyrrolidin-1-yl)ethanone]
inhibition at 1 µM: 111%

O=C(COc1ccc2c(c1)N(c1nc(-c3ccc(Cl)s3)nc3c1C[S+]([O-])C3)CC2)N1CCC1 (stereo not drawn) [Compound No. 2-122, 1-(Azetidin-1-yl)-2-((1-(2-(5-chlorothiophen-2-yl)-6-oxido-5,7-dihydrothieno[3,4-d]pyrimidin-4-yl)indolin-6-yl)oxy)ethanone]
inhibition at 1 µM: 40%

CN1CCN(C(=O)COc2ccc3c(c2)N(c2nc(-c4ccc(Cl)s4)nc4c2CS(=O)(=O)C4)CC3)CC1 [Compound No. 2-123, 2-((1-(2-(5-Chlorothiophen-2-yl)-6,6-dioxido-5,7-dihydrothieno[3,4-d]pyrimidin-4-yl)indolin-6-yl)oxy)-1-(4-methylpiperazin-1-yl) ethanone]
IC50 (IC50, dose response measurements with eight concentrations): < 100 nM | inhibition at 1 µM: 95%

O=C(COc1ccc2c(c1)N(c1nc(-c3ccc(Cl)s3)nc3c1CS(=O)(=O)C3)CC2)N1CCC1 [Compound No. 2-124, 1-(Azetidin-1-yl)-2-((1-(2-(5-chlorothiophen-2-yl)-6,6-dioxido-5,7-dihydrothieno[3,4-d]pyrimidin-4-yl)indolin-6-yl)oxy)ethanone]
inhibition at 1 µM: 104% | IC50 [1]: < 100 nM

O=C(COc1ccc2c(c1)N(c1nc(-c3ccc(Cl)s3)nc3c1CS(=O)(=O)C3)CC2)N1CCOCC1 [Compound No. 2-125, 2-((1-(2-(5-Chlorothiophen-2-yl)-6,6-dioxido-5,7-dihydrothieno[3,4-d]pyrimidin-4-yl)indolin-6-yl)oxy)-1-morpholinoethanone]
inhibition at 1 µM: 85% | IC50 [1]: < 100 nM

O=C(COc1ccc2c(c1)N(c1nc(-c3ccc(Cl)s3)nc3c1CS(=O)(=O)C3)CC2)N1CCCC1 [Compound No. 2-126, 2-((1-(2-(5-Chlorothiophen-2-yl)-6,6-dioxido-5,7-dihydrothieno[3,4-d]pyrimidin-4-yl)indolin-6-yl)oxy)-1-(pyrrolidin-1-yl)ethanone]
inhibition at 1 µM: 104% | IC50 [1]: < 100 nM

O=C(COc1ccc2c(c1)N(c1nc(-c3ccc(Cl)s3)nc3c1CCC3)CC2)N1CCC1 [Compound No. 2-127, 1-(Azetidin-1-yl)-2-((1-(2-(5-chlorothiophen-2-yl)-6,7-dihydro-5H-cyclopenta[d]pyrimidin-4-yl)indolin-6-yl)oxy)ethanone]
inhibition at 1 µM: 43%

O=C(COc1ccc2c(c1)N(c1nc(-c3ccc(Cl)s3)nc3c1CCC3)CC2)N1CCOCC1 [Compound No. 2-128, 2-((1-(2-(5-Chlorothiophen-2-yl)-6,7-dihydro-5H-cyclopenta[d]pyrimidin-4-yl)indolin-6-yl)oxy)-1-morpholinoethanone]
inhibition at 1 µM: 85% | IC50 [1]: 100 to 1000 nM

CN1CCN(C(=O)COc2ccc3c(c2)N(c2nc(-c4ccc(Cl)s4)nc4c2CCC4)CC3)CC1 [Compound No. 2-129, 2-((1-(2-(5-Chlorothiophen-2-yl)-6,7-dihydro-5H-cyclopenta[d]pyrimidin-4-yl)indolin-6-yl)oxy)-1-(4-methylpiperazin-1-yl)ethanone]
inhibition at 1 µM: 48%

O=C(COc1ccc2c(c1)N(c1nc(-c3ccncc3)nc3c1CS(=O)(=O)C3)CC2)N1CCCC1 [Compound No. 2-130, 2-((1-(6,6-Dioxido-2-(pyridin-4-yl)-5,7-dihydrothieno[3,4-d]pyrimidin-4-yl)indolin-6-yl)oxy)-1-(pyrrolidin-1-yl)ethanone]
inhibition at 1 µM: 87% | IC50 [1]: < 100 nM

O=C(COc1ccc2c(c1)N(c1nc(-c3ccncc3)nc3c1CS(=O)(=O)C3)CC2)N1CCC1 [Compound No. 2-131, 1-(Azetidin-1-yl)-2-((1-(6,6-dioxido-2-(pyridin-4-yl)-5,7-dihydrothieno[3,4-d]pyrimidin-4-yl)indolin-6-yl)oxy)ethanone]
inhibition at 1 µM: 90% | IC50 [1]: < 100 nM

CN(C)C(=O)COc1ccc2c(c1)N(c1nc(-c3ccncc3)nc3c1CS(=O)(=O)C3)CC2 [Compound No. 2-132, 2-((1-(6,6-Dioxido-2-(pyridin-4-yl)-5,7-dihydrothieno[3,4-d]pyrimidin-4-yl)indolin-6-yl)oxy)-N,N-dimethylacetamide]
inhibition at 1 µM: 91% | IC50 [1]: < 100 nM

O=C(COc1ccc2c(c1)N(c1nc(-c3ccncc3)nc3c1C[S+]([O-])C3)CC2)N1CCCC1 (stereo not drawn) [Compound No. 2-133, 2-((1-(6-Oxido-2-(pyridin-4-yl)-5,7-dihydrothieno[3,4-d]pyrimidin-4-yl)indolin-6-yl)oxy)-1-(pyrrolidin-1-yl)ethanone]
inhibition at 1 µM: 94% | IC50 [1]: < 100 nM

O=C(COc1ccc2c(c1)N(c1nc(-c3ccncc3)nc3c1C[S+]([O-])C3)CC2)N1CCC1 (stereo not drawn) [Compound No. 2-134, 1-(Azetidin-1-yl)-2-((1-(6-oxido-2-(pyridin-4-yl)-5,7-dihydrothieno[3,4-d]pyrimidin-4-yl)indolin-6-yl)oxy)ethanone]
inhibition at 1 µM: 77% | IC50 [1]: < 100 nM

CN(C)C(=O)COc1ccc2c(c1)N(c1nc(-c3ccncc3)nc3c1C[S+]([O-])C3)CC2 (stereo not drawn) [Compound No. 2-135, N,N-Dimethyl-2-((1-(6-oxido-2-(pyridin-4-yl)-5,7-dihydrothieno[3,4-d]pyrimidin-4-yl)indolin-6-yl)oxy)acetamide]
inhibition at 1 µM: 97% | IC50 [1]: < 100 nM

CN(C)C(=O)COc1ccc2c(c1)N(c1nc(-c3cccnc3)nc3c1CS(=O)(=O)C3)CC2 [Compound No. 2-136, 2-((1-(6,6-Dioxido-2-(pyridin-3-yl)-5,7-dihydrothieno[3,4-d]pyrimidin-4-yl)indolin-6-yl)oxy)-N,N-dimethylacetamide]
inhibition at 1 µM: 98% | IC50 [1]: < 100 nM

CN(C)C(=O)COc1ccc2c(c1)N(c1nc(-c3cccnc3)nc3c1C[S+]([O-])C3)CC2 (stereo not drawn) [Compound No. 2-137, N,N-Dimethyl-2-((1-(6-oxido-2-(pyridin-3-yl)-5,7-dihydrothieno[3,4-d]pyrimidin-4-yl)indolin-6-yl)oxy)acetamide]
inhibition at 1 µM: 97% | IC50 [1]: < 100 nM

COc1ccc(-c2nc3c(c(N4CCc5ccc(OCC(=O)N(C)C)cc54)n2)C[S+]([O-])C3)cn1 (stereo not drawn) [Compound No. 2-139, 2-((1-(2-(6-Methoxypyridin-3-yl)-6-oxido-5,7-dihydrothieno[3,4-d]pyrimidin-4-yl)indolin-6-yl)oxy)-N,N-dimethylacetamide]
IC50 [1]: < 100 nM
